From ChEMBL document CHEMBL5143760, “Inhibitors of Transforming Growth Factor Beta Receptor 1 (TGFβr1) May Enhance the Efficacy of Several Monoclonal Antibodies as Cancer Therapy” (2022)
Calls of active or inactive are those of the source. No cut-off for these calls is given here.

Legend:
MC-38 [1] = assay: Antitumor activity against mouse MC38 cells xenografted in C57BL/6 mouse assessed as inhibition of tumor growth at 30 mg/kg, po twice daily co-administered with anti-PD1-antibody at 5 mg/kg, ip twice weekly for 2 weeks; assay type: functional, organism-based
MC-38 [2] = assay: Antitumor activity against mouse MC38 cells xenografted in C57BL/6 mouse assessed as increase in animal survival at 30 mg/kg, po twice daily co-administered with anti-PD1-antibody at 5 mg/kg, ip twice weekly for 2 weeks; assay type: functional, organism-based
4T1 [3] = assay: Antitumor activity against mouse 4T1 cells xenografted in Balb/cj mouse assessed as inhibition of tumor growth at 30 mg/kg, po twice daily for 21 days relative to control; assay type: functional; settings: 4T1, 504 h, time 21 day, read-out: TGI
4T1 [4] = assay: Antitumor activity against mouse 4T1 cells xenografted in Balb/cj mouse assessed as inhibition of tumor growth at 30 mg/kg, po twice daily for 21 days in presence of 4-1BB monoclonal antibody relative to control; assay type: functional; settings: 4T1, 504 h, time 21 day, read-out: TGI
4T1 [5] = assay: Antitumor activity against mouse 4T1 cells xenografted in Balb/cj mouse assessed as inhibition of tumor growth at 30 mg/kg, po twice daily for 21 days in presence of OXO40 monoclonal antibody relative to control; assay type: functional; settings: 4T1, 504 h, time 21 day, read-out: TGI
CT26 [6] = assay: Antitumor activity against mouse CT26 cells xenografted in Balb/c mouse assessed as time of events at 30 mg/kg, po twice daily for 28 days; assay type: functional; settings: time 28 day
CT26 [7] = assay: Antitumor activity against mouse CT26 cells xenografted in Balb/c mouse assessed as tumor growth delay at 30 mg/kg, po twice daily for 28 days; assay type: functional; settings: time 28 day
CT26 [8] = assay: Antitumor activity against mouse CT26 cells xenografted in Balb/c mouse assessed as time of events at 30 mg/kg, po twice daily for 28 days in presence of ant-CTLA4 antibody; assay type: functional; settings: time 28 day
CT26 [9] = assay: Antitumor activity against mouse CT26 cells xenografted in Balb/c mouse assessed as tumor growth delay at 30 mg/kg, po twice daily for 28 days in presence of ant-CTLA4 antibody; assay type: functional; settings: time 28 day

CC(C)c1cnc(-c2cc(Cl)ccc2F)cc1Nc1ccncc1C(=O)NC(CO)CO [PF-06952229]
inhibition (MC-38 [1]): Active
Activity (MC-38 [2]): Active
inhibition in vivo at 30 mg/kg (4T1 [3]): 18%
inhibition in vivo at 30 mg/kg (4T1 [4]): 41%
inhibition in vivo at 30 mg/kg (4T1 [5]): 29.5%
Time (CT26 [6]): 33.8 days
Activity (CT26 [7]): 18%
Time (CT26 [8]): 59 days
Activity (CT26 [9]): 106%
